The target in assay [1] is T1, Signal transducer and activator of transcription 3 (Homo sapiens, UniProt P40763). Description: Inhibition of IL-23 induced STAT3 phosphorylation in human KIT225 cells by AlphaLISA assay. On the technique in general: Alpha assays give light when donor and acceptor beads are brought close together.
Assay [2] addresses T1, Signal transducer and activator of transcription 3. Kind of assay: Inhibition of IL-23 induced STAT3 phosphorylation in human Jurkat cells incubated for 30 mins by microplate reader analysis.
The target is the same in assay [3]. Kind of assay: Inhibition of IL-6 induced STAT3 phosphorylation in human TF-1 cells by AlphaLISA assay.

One may read the IC50 as the midpoint of a concentration-inhibition curve. A lower IC50 goes with greater potency.

T1 sequence (P40763 whole entry): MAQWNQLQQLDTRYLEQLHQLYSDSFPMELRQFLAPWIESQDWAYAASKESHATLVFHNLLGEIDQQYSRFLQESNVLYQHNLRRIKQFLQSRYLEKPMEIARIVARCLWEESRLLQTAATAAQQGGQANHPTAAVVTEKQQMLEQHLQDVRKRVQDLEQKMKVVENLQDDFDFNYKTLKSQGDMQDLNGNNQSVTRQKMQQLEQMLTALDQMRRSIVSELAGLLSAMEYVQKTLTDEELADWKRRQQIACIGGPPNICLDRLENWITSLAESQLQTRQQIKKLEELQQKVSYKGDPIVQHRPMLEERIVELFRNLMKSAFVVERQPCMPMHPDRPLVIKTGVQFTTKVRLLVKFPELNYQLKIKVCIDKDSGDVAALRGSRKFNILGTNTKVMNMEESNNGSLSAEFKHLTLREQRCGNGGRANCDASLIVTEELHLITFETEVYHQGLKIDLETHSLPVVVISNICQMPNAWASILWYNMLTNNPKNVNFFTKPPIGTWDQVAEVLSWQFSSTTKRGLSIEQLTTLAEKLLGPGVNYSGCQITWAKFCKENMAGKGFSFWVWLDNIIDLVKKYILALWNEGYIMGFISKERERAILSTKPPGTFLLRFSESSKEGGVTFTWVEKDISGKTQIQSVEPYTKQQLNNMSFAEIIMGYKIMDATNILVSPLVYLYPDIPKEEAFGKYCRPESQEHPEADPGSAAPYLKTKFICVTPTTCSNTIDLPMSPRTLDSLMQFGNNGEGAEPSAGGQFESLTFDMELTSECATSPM

`[2H]C([2H])([2H])NC(=O)c1nnc(Nc2ccc(N3CC(O)C3)cn2)cc1Nc1cccc(-c2ncn(C)n2)c1OC` returned an IC50 in assay [1] of 5.9 nM. Same read-out and setting: the figure for `CNc1cc(Nc2cccn(-c3ccccn3)c2=O)nc2c(C(=O)N[C@@H]3CCN(C)C3=O)cnn12` is 65 nM; for `CCOc1cccc(Nc2cc(NC)n3ncc(C(=O)N[C@@H]4CCN(C)C4=O)c3n2)n1` it is 29 nM.

`[2H]C([2H])([2H])NC(=O)c1nnc(NC(=O)C2CC2)cc1Nc1cccc(-c2ncc(-c3cccnc3C(F)(F)F)cn2)c1OC` displayed an IC50 in assay [2] of 2.4 nM. For the compound `CNC(=O)c1nnc(NC(=O)N2CCC2)cc1Nc1cccc(-c2ncn(C)n2)c1OC` [US11053219, Example 28], the IC50 in assay [1] came to 28 nM; in assay [3] it was 5900 nM.

Compound `CNc1cc(Nc2ccccc2OC)nc2c(C(=O)N[C@@H]3CCN(C)C3=O)cnn12` yielded an IC50 in assay [1] of 9 nM.

The record behind these values is BindingDB's records for doi:10.1021/acs.jmedchem.2c01800 (China Pharmaceutical University, 2023).
